From patent publication US7932270B2 (Cytokinetics, Inc., priority 2006, dated 2011)

Target: T1, chicken gizzard smooth muscle myosin subfragment-1 chemically crosslinked to cardiac or skeletal actin (Gallus gallus, UniProt P10587)
T1 construct: chicken gizzard smooth muscle myosin subfragment-1; from tissue; host or cells: chicken gizzard
Test: Smooth muscle myosin ATPase dose response assay (pyruvate kinase/horseradish peroxidase/pyruvate oxidase-coupled, amplex red fluorescence)
Assay type: biochemical
Details: read-out: IC50 Arithmetic Mean
Procedure, shortened: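 Lead-optimization format: ATPase coupled via pyruvate kinase, pyruvate oxidase and peroxidase, pH 7.00 at 22° C, with 0.15 mM ATP, 100 mM KCl, 2 mM MgCl2, 2 mM phosphate and 0.1 mM amplex red (final). Crosslinked S1 titrated empirically for set hydrolysis rate; fluorescence (ex 480/em 615 nm) dose curves fit 4-parameter for IC50.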

T1 sequence (P02607 2-151): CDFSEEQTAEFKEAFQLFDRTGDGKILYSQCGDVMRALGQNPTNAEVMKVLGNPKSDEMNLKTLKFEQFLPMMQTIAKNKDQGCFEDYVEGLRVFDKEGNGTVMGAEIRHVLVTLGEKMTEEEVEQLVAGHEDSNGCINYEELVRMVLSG
T1 sequence (P10587 84-789): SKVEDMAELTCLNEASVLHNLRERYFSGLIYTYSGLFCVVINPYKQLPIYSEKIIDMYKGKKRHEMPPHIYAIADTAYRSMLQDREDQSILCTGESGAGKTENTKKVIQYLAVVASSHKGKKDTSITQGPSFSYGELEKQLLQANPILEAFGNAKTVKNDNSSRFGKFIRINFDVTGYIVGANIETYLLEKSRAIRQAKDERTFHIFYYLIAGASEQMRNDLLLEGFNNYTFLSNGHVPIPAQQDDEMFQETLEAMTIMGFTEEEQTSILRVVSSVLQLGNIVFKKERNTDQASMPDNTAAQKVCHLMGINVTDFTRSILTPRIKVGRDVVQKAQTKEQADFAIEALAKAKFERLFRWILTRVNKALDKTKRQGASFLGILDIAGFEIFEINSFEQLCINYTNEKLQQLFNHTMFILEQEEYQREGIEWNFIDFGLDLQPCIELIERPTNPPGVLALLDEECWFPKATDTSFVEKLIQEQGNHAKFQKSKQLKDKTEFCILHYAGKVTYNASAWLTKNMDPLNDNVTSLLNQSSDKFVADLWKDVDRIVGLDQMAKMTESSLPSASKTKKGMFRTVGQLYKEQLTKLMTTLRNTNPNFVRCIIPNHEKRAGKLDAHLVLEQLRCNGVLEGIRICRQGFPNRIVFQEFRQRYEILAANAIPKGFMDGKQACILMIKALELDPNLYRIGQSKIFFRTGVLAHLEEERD

SMILES | IC50 [nM]
O=C(NCc1cccnc1)c1ccc(-c2ccccc2)nc1NCCc1ccco1 [{2-[(2-(2-furyl)ethyl)amino]-6-phenyl(3-pyridyl)}-N-(3-pyridylmethyl)carboxamide] | 294
NCCNc1cccc(CNC(=O)c2ccc(-c3cn[nH]c3)nc2NCCc2cccc(F)c2)n1 [N-({6-[(2-aminoethyl)amino](2-pyridyl)}methyl)(2-{[2-(3-fluorophenyl)ethyl]amino}-6-pyrazol-4-yl(3-pyridyl))carboxamide] | 20
N#Cc1ccccc1-c1ccc(C(=O)NCc2cccnc2)c(NCC(O)c2cccc(F)c2)n1 (stereo not shown) [(6-(2-cyanophenyl)-2-{[2-(3-fluorophenyl)-2-hydroxyethyl]amino}(3-pyridyl))-N-(3-pyridylmethyl)carboxamide] | 339
NCc1cc(C(=O)NCc2cccnc2)c(NCCc2cccc(F)c2)nc1-c1ccccc1 [(5-(aminomethyl)-2-{[2-(3-fluorophenyl)ethyl]amino}-6-phenyl(3-pyridyl))-N-(3-pyridylmethyl)carboxamide] | 8900
N#Cc1ccccc1-c1ccc(C(=O)NCc2cccc(CCN)n2)c(NCCc2cccc(F)c2)n1 [N-{[6-(2-aminoethyl)(2-pyridyl)]methyl}(6-(2-cyanophenyl)-2-{[2-(3-fluorophenyl)ethyl]amino}(3-pyridyl))carboxamide] | 11
CC(C)(C)OC(=O)NCCCC(=O)N1CCC[C@@H]1CNC(=O)c1cc(F)c(-c2cn[nH]c2)nc1NCCc1cccc(F)c1 [N-[((2R)-1-{4-[(tert-butoxy)carbonylamino]butanoyl}pyrrolidin-2-yl)methyl](5-fluoro-2-{[2-(3-fluorophenyl)ethyl]amino}-6-pyrazol-4-yl(3-pyridyl))carboxamide] | 750
O=C(NCc1cccnc1)c1ccc(-c2ccccc2)nc1NCCc1cccc(F)c1 [(2-{[2-(3-fluorophenyl)ethyl]amino}-6-phenyl(3-pyridyl))-N-(3-pyridylmethyl)carboxamide] | 63
C=CCNC(=O)c1ccc(-c2ccccc2)nc1NCCc1ccccc1 [{6-phenyl-2-[(2-phenylethyl)amino](3-pyridyl)}-N-prop-2-enylcarboxamide] | 1060
NCc1cccc(CNC(=O)c2ccc(-c3ccccc3)nc2NCCc2cccc(F)c2)n1 [N-{[6-(aminomethyl)(2-pyridyl)]methyl}(2-{[2-(3-fluorophenyl)ethyl]amino}-6-phenyl(3-pyridyl))carboxamide] | 19
Cc1ccccc1CCNc1nc(-c2ccccc2)ccc1C(=O)NCc1cccnc1 [(2-{[2-(2-methylphenyl)ethyl]amino}-6-phenyl(3-pyridyl))-N-(3-pyridylmethyl)carboxamide] | 326
N#Cc1ccccc1-c1ccc(C(=O)NC[C@H]2CCC(=O)N2CCCCCN2C(=O)c3ccccc3C2=O)c(NCCc2cccc(F)c2)n1 [N-({(2R)-1-[5-(1,3-dioxobenzo[c]azolin-2-yl)pentyl]-5-oxopyrrolidin-2-yl}methyl)(6-(2-cyanophenyl)-2-{[2-(3-fluorophenyl)ethyl]amino}(3-pyridyl))carboxamide] | 266
Cc1cc(C(=O)NC[C@H]2CCCN2C(=O)OC(C)(C)C)c(NCCc2cccc(F)c2)nc1-c1cnn(C)c1 [tert-butyl (2R)-2-{[(2-{[2-(3-fluorophenyl)ethyl]amino}-5-methyl-6-(1-methylpyrazol-4-yl)(3-pyridyl))carbonylamino]methyl}pyrrolidinecarboxylate] | 3700
CC(C)(C)OC(=O)NCc1ncccc1CNC(=O)c1ccc(-c2cnn(CCO)c2)nc1NCCc1cccc(F)c1 [N-[(2-{[(tert-butoxy)carbonylamino]methyl}(3-pyridyl))methyl](2-{[2-(3-fluorophenyl)ethyl]amino}-6-[1-(2-hydroxyethyl)pyrazol-4-yl](3-pyridyl))carboxamide] | 15000
CC(C)(C)OC(=O)NCCCN1C(=O)CC[C@@H]1CNC(=O)c1cc(F)c(-c2ccccc2C#N)nc1NCCc1cccc(F)c1 [N-[((2R)-1-{3-[(tert-butoxy)carbonylamino]propyl}-5-oxopyrrolidin-2-yl)methyl](6-(2-cyanophenyl)-5-fluoro-2-{[2-(3-fluorophenyl)ethyl]amino}(3-pyridyl))carboxamide] | 845
Cn1cc(-c2ccc(C(=O)NCC3CCNC3=O)c(NCCc3cccc(F)c3)n2)cn1 (stereo not shown) [(2-{[2-(3-fluorophenyl)ethyl]amino}-6-(1-methylpyrazol-4-yl)(3-pyridyl))-N-[(2-oxopyrrolidin-3-yl)methyl]carboxamide] | 248
O=C1CCCCC(CNC(=O)c2ccc(-c3cn[nH]c3)nc2NCCc2cccc(F)c2)N1 (stereo not shown) [(2-{[2-(3-fluorophenyl)ethyl]amino}-6-pyrazol-4-yl(3-pyridyl))-N-[(7-oxoazaperhydroepin-2-yl)methyl]carboxamide] | 687
C[C@@H](CNC(=O)c1ccc(-c2ccccc2C#N)nc1NCCc1cccc(F)c1)NC(=O)CCCNC(=O)OC(C)(C)C | 2020
Cc1cc(C)n(CCNc2nc(-c3ccccc3)ccc2C(=O)NCc2cccnc2)n1 [(2-{[2-(3,5-dimethylpyrazolyl)ethyl]amino}-6-phenyl(3-pyridyl))-N-(3-pyridylmethyl)carboxamide] | 6830

More lines, now with the values ahead:

IC50 [nM] | SMILES
12400 | N#Cc1ccccc1-c1ccc(C(=O)NC[C@H]2CN(C(=O)CCCN)CCN2)c(NCCc2cccc(F)c2)n1 [N-{[(2S)-4-(4-aminobutanoyl)piperazin-2-yl]methyl}(6-(2-cyanophenyl)-2-{[2-(3-fluorophenyl)ethyl]amino}(3-pyridyl))carboxamide]
968 | N#Cc1ccc(CNC(=O)c2ccc(-c3ccccc3C#N)nc2NCCc2cccc(F)c2)cc1 [(6-(2-cyanophenyl)-2-{[2-(3-fluorophenyl)ethyl]amino}(3-pyridyl))-N-[(4-cyanophenyl)methyl]carboxamide]
173 | N#Cc1ccccc1-c1ccc(C(=O)NC[C@H]2CCCN2C(=O)[C@@H](N)CO)c(NCCc2cccc(F)c2)n1 [N-{[(2R)-1-((2S)-2-amino-3-hydroxypropanoyl)pyrrolidin-2-yl]methyl}(6-(2-cyanophenyl)-2-{[2-(3-fluorophenyl)ethyl]amino}(3-pyridyl))carboxamide]
155 | N#Cc1ccccc1-c1ccc(C(=O)NC[C@H]2CNCC(=O)N2)c(NCCc2cccc(F)c2)n1 [N-[((2R)-6-oxopiperazin-2-yl)methyl](6-(2-cyanophenyl)-2-{[2-(3-fluorophenyl)ethyl]amino}(3-pyridyl))carboxamide]
439 | N#Cc1ccccc1-c1ccc(C(=O)NCC2CCCN2)c(NCCc2cccc(F)c2)n1 (stereo not shown) [(6-(2-cyanophenyl)-2-{[2-(3-fluorophenyl)ethyl]amino}(3-pyridyl))-N-(pyrrolidin-2-ylmethyl)carboxamide]
161 | N#Cc1ccccc1-c1ccc(C(=O)NC[C@H]2CCCCN2C(=O)[C@H](N)CN)c(NCCc2cccc(F)c2)n1 [N-{[(2R)-1-((2R)-2,3-diaminopropanoyl)(2-piperidyl)]methyl}(6-(2-cyanophenyl)-2-{[2-(3-fluorophenyl)ethyl]amino}(3-pyridyl))carboxamide]
513 | COC(=O)[C@@H](CO)NC(=O)c1ccc(-c2ccccc2C#N)nc1NCCc1cccc(F)c1 [methyl (2R)-2-[(6-(2-cyanophenyl)-2-{[2-(3-fluorophenyl)ethyl]amino}(3-pyridyl))carbonylamino]-3-hydroxypropanoate]
85 | N#Cc1ccccc1-c1ccc(C(=O)NC[C@H]2CCCN2C(=O)CCCO)c(NCCc2cccc(F)c2)n1 [N-{[(2R)-1-(4-hydroxybutanoyl)pyrrolidin-2-yl]methyl}(6-(2-cyanophenyl)-2-{[2-(3-fluorophenyl)ethyl]amino}(3-pyridyl))carboxamide]
515 | C[C@H](N)CNC(=O)c1ccc(-c2ccccc2C#N)nc1NCCc1cccc(F)c1 [N-((2S)-2-aminopropyl)(6-(2-cyanophenyl)-2-{[2-(3-fluorophenyl)ethyl]amino}(3-pyridyl))carboxamide]
110 | N#Cc1ccccc1-c1ccc(C(=O)NC[C@H]2CCC(=O)N2CCN)c(NCCc2cccc(F)c2)n1 [N-{[(2R)-1-(2-aminoethyl)-5-oxopyrrolidin-2-yl]methyl}(6-(2-cyanophenyl)-2-{[2-(3-fluorophenyl)ethyl]amino}(3-pyridyl))carboxamide]
1620 | N#Cc1ccccc1-c1ccc(C(=O)NCCOCCN)c(NCCc2cccc(F)c2)n1 [N-[2-(2-aminoethoxy)ethyl](6-(2-cyanophenyl)-2-{[2-(3-fluorophenyl)ethyl]amino}(3-pyridyl))carboxamide]
307 | CNC(=O)N1CCC[C@@H]1CNC(=O)c1ccc(-c2ccccc2C#N)nc1NCCc1cccc(F)c1 [N-{[(2R)-1-(N-methylcarbamoyl)pyrrolidin-2-yl]methyl}(6-(2-cyanophenyl)-2-{[2-(3-fluorophenyl)ethyl]amino}(3-pyridyl))carboxamide]
12200 | N#Cc1ccccc1-c1ccc(C(=O)NC[C@H]2CNCCN2)c(NCCc2cccc(F)c2)n1 [N-[((2R)piperazin-2-yl)methyl](6-(2-cyanophenyl)-2-{[2-(3-fluorophenyl)ethyl]amino}(3-pyridyl))carboxamide]
51.7 | N#Cc1ccccc1-c1ccc(C(=O)NC[C@H]2CCC(=O)N2CCCCN)c(NCCc2cccc(F)c2)n1 [N-{[(2R)-1-(4-aminobutyl)-5-oxopyrrolidin-2-yl]methyl}(6-(2-cyanophenyl)-2-{[2-(3-fluorophenyl)ethyl]amino}(3-pyridyl))carboxamide]
12900 | CNC(=O)[C@H](N)CCNC(=O)c1ccc(-c2ccccc2C#N)nc1NCCc1cccc(F)c1 [(2R)-2-amino-4-[(6-(2-cyanophenyl)-2-{[2-(3-fluorophenyl)ethyl]amino}(3-pyridyl))carbonylamino]-N-methylbutanamide]
318 | N#Cc1ccccc1-c1ccc(C(=O)NCCCO)c(NCCc2cccc(F)c2)n1 [(6-(2-cyanophenyl)-2-{[2-(3-fluorophenyl)ethyl]amino}(3-pyridyl))-N-(3-hydroxypropyl)carboxamide]
